Measured values from patent publication US12310963B2, “Pyrazole derivatives and use thereof” (Tarapeutics Science Inc., priority 2019, dated 2025).

Tests used:
[1] = tested on: BaF3-TEL-cKIT (stably expressing cKIT kinase); test: Growth of BaF3-TEL-cKIT cells, Cell Titer-Glo, 72 h; assay type: cell-based, mouse
Excerpt: (§1) In this example, mouse primary B cell BaF3 (purchased from ATCC, U.S.A.) was used. In addition, in this example, mouse BaF3-tel-PDGFRα (stably expressing PDGFRα kinase), mouse BaF3-tel-PDGFRβ (stably expressing PDGFRβ kinase), BaF3-P210 (stably expressing ABL kinase), BaF3-P210-T315I (stably expressing ABL-T315I kinase), BaF3-FL-BRAF-V600E (stably expressing BRAF-V600E kinase), BaF3-TEL-cKIT (stably expressing cKIT kinase), BaF3-TEL-VEGFR2 (stably expressing VEGFR2 kinase), BaF3-TEL-FGFR2 (stably expressing FGFR2 kinase) were also used. The above-mentioned cell trains were all constructed in our laboratory by the method as follows. The sequences of human BCR-ABL (P210 or P210/T315I mutated), full-length BRAF-V600E, cKIT, VEGFR2, FGFR2, PDGFRα, PDGFRβ kinase region were amplified respectively via PCR, and inserted respectively into a MSCV-Puro vector (purchased from Clontech) having a N-terminal TEL fragment and/or NPM fragment and/or TPR fragment, and stably transferred into mouse BaF3 cells by the retroviral method, and the growth factor IL-3 was removed. Eventually, cell lines which are transferred into proteins depending on PDGFRα, PDGFRβ were obtained.
(§2) In this example, solutions of the test compound at different concentrations (0.000508 μM, 0.00152 μM, 0.00457 μM, 0.0137 μM, 0.0411 μM, 0.123 μM, 0.370 μM, 1.11 μM, 3.33 μM, 10 μM) were added to the above cells. […]

[2] = tested on: BaF3-TEL-FGFR2 (stably expressing FGFR2 kinase); test: Growth of BaF3-TEL-FGFR2 cells, Cell Titer-Glo, 72 h; assay type: cell-based, mouse
Excerpt: as §1, §2

[3] = tested on: BaF3-TEL-VEGFR2 (stably expressing VEGFR2 kinase); test: Growth of BaF3-TEL-VEGFR2 cells, Cell Titer-Glo, 72 h; assay type: cell-based, mouse
Excerpt: as §1, §2

[4] = tested on: BaF3-P210-T315I (stably expressing ABL-T315I kinase); test: Growth of BaF3-P210-T315I cells, Cell Titer-Glo, 72 h; assay type: cell-based, mouse
Excerpt: as §1, §2

[5] = tested on: BaF3-P210 (stably expressing ABL kinase; BCR-ABL P210); test: Growth of BaF3-P210 cells, Cell Titer-Glo, 72 h; assay type: cell-based, mouse
Excerpt: as §1, §2

[6] = tested on: human chronic eosinophilic leukemia cells EOL-1 (expressing PDGFRα); test: Mouse tumor model of human chronic eosinophilic leukemia cells EOL-1; assay type: in vivo
Procedure: • 1) Bal b/c female mice, 4-6 weeks old, were purchased from Shanghai SLAC Laboratory Animal Co., Ltd., and were raised in an SPF laboratory; the drinking water and the bedding were both sterilized by autoclaving; and all the operations involving the mice were performed under aseptic conditions; • 2) On Day 0, 1×10^7 human chronic eosinophilic leukemia cells EOL-1 (expressing PDGFRα) (purchased from ATCC) were injected subcutaneously into the left flank of each of the mice; • 3) On Day 15, the mice were randomly divided into four groups with five mice per group, and were administered respectively for 14 days. […] The tumor volume was calculated as length×width×width/2 mm^3.

[7] = tested on: BaF3-tel-PDGFRα (stably expressing PDGFRα kinase); test: Growth of BaF3-tel-PDGFRα cells, Cell Titer-Glo, 72 h; assay type: cell-based, mouse
Excerpt: as §1
In this example, solutions of the test compound at different concentrations (0.000508 μM, 0.00152 μM, 0.00457 μM, 0.0137 μM, 0.0411 μM, 0.123 μM, 0.370 μM, 1.11 μM, 3.33 μM, 10 μM) were added to the above cells. The cells were incubated for 72 hours.

In the case of `Cc1ccc(NC(=O)c2cccc(C(F)(F)F)n2)cc1-n1cc(-c2cncc(N3CCN(C)CC3)c2)cn1` [Compound 1, N-(4-methyl-3-(4-(5-(4-methylpiperazin-1-yl)pyridin-3-yl)-1H-pyrazol-1-yl)phenyl)-6-(trifluoromethyl)picolinamide], the GI50 ([1]; BaF3-TEL-cKIT cells, 72 hours) is reported as 5.34 µM, the “inhibitory effect against cKIT (in words)” value ([1]; summary of Table 2) is reported as “no inhibitory effect, or a relatively weak inhibitory effect” and the GI50 ([2]; BaF3-TEL-FGFR2 cells, 72 hours) is reported as 3.26 µM. For the same compound, the “inhibitory effect against FGFR2 (in words)” value ([2]; summary of Table 2) was “no inhibitory effect, or a relatively weak inhibitory effect”, the GI50 ([3]; BaF3-TEL-VEGFR2 cells, 72 hours) was 4 µM and the “inhibitory effect against VEGFR2 (in words)” value ([3]; summary of Table 2) was “no inhibitory effect, or a relatively weak inhibitory effect”. For the same compound, the GI50 ([4]; BaF3-P210-T315I cells, 72 hours) was 5.16 µM, the “inhibitory effect against ABL-T315I (in words)” value ([4]; summary of Table 2) was “no inhibitory effect, or a relatively weak inhibitory effect” and the GI50 ([5]; BaF3-P210 cells, 72 hours) was > 10 µM. For the same compound, the “inhibitory effect against ABL (in words)” value ([5]; summary of Table 2) was “no inhibitory effect, or a relatively weak inhibitory effect”, the “tumor growth inhibitory rate (TGI)” value ([6]; 5 mg/kg, 14 days after administration, by tumor weight vs control group, FIG. 1c) was 96% and the “effect on tumor size (in words)” value ([6]; 5 mg/kg, FIG. 1b) was “excellent effect in inhibiting the tumor”. The “effect on the body weight of the mouse (in words)” value ([6]; EOL-1 mouse model, 14 days administration, FIG. 1a) was “little effect on the body weight” and the GI50 [7] was 0.056 µM.
